A word on the melting point: it is the temperature of the solid-liquid transition.

The record followed here is patent US20060205751A1, “Novel compounds” (SmithKline Beecham Corporation, priority 2003, published 2006).

Structures are written as SMILES.

`O=C(O)c1cccc(-c2cc3cc(Cl)c(Cl)cc3[nH]2)c1` [Example 1, 3-(5,6-Dichloro-1H-indol-2-yl)-benzoic acid] yielded a melting point of 79.5 to 80.5 °C.
